ChEMBL document CHEMBL3885881, “DrugMatrix”

Species: Rattus norvegicus
Experiment: DrugMatrix - Regimen: Daily Repeat
Type: toxicity, organism-based, Sprague-Dawley
Design: regimen Daily Repeat, gender Male, age 6-8 weeks
Settings: in vivo, sc, route subcutaneous, […]; for ABSOLUTE BASOPHIL / ABSOLUTE EOSINOPHIL / ABSOLUTE LYMPHOCYTE / ABSOLUTE MONOCYTE / ABSOLUTE SEGMENTED NEUTROPHIL / BASOPHIL / EOSINOPHIL / ERYTHROCYTE COUNT / HEMATOCRIT / HEMOGLOBIN / LEUKOCYTE COUNT / LYMPHOCYTE / MEAN CORPUSCULAR HEMOGLOBIN / MEAN CORPUSCULAR HEMOGLOBIN CONCENTRATION / MEAN CORPUSCULAR VOLUME / MONOCYTE / NEUTROPHIL / NUCLEATED RED BLOOD CELLS / PLATELET COUNT: tissue Blood; for ALANINE AMINOTRANSFERASE / ALBUMIN / ALKALINE PHOSPHATASE / ASPARTATE AMINOTRANSFERASE / BLOOD UREA NITROGEN / CARBON DIOXIDE / CHLORIDE / CHOLESTEROL / CREATINE PHOSPHOKINASE / CREATININE / GLUCOSE / LACTATE DEHYDROGENASE / LIPASE / PHOSPHORUS / POTASSIUM / SODIUM / TOTAL BILIRUBIN / TOTAL PROTEIN / URIC ACID: tissue Plasma
[1] = 15 mg/kg, 72 h, dose level Low, time 3 day
[2] = 15 mg/kg, 120 h, dose level Low, time 5 day
[3] = 750 mg/kg, 72 h, dose level High, time 3 day
[4] = 750 mg/kg, 120 h, dose level High, time 5 day

Compound: CC=CC(=O)N(CC)c1ccccc1C
- ABSOLUTE BASOPHIL [1]: 0 CELLS/uL
- ABSOLUTE EOSINOPHIL [1]: 112 CELLS/uL
- ABSOLUTE LYMPHOCYTE [1]: 10089.67 CELLS/uL
- ABSOLUTE MONOCYTE [1]: 82.33 CELLS/uL
- ABSOLUTE SEGMENTED NEUTROPHIL [1]: 1549.33 CELLS/uL
- BASOPHIL [1]: 0%
- EOSINOPHIL [1]: 1%
- ERYTHROCYTE COUNT [1]: 5.39 x10E6/uL
- HEMATOCRIT [1]: 34.37%
- HEMOGLOBIN [1]: 13.8 G/DL
- LEUKOCYTE COUNT [1]: 11.83 x10E3/uL
- LYMPHOCYTE [1]: 86.33%
- MEAN CORPUSCULAR HEMOGLOBIN [1]: 25.63 pg
- MEAN CORPUSCULAR HEMOGLOBIN CONCENTRATION [1]: 40.2 G/DL
- MEAN CORPUSCULAR VOLUME [1]: 63.7 fL
- MONOCYTE [1]: 0.67%
- NEUTROPHIL [1]: 12%
- NUCLEATED RED BLOOD CELLS [1]: 0.33 /100WBC
- PLATELET COUNT [1]: 1164.67 x10E3/uL
- ALANINE AMINOTRANSFERASE [1]: 60.33 u/L
- ALBUMIN [1]: 4.3 G/DL
- ALKALINE PHOSPHATASE [1]: 309.33 u/L
- ASPARTATE AMINOTRANSFERASE [1]: 90 u/L
- BLOOD UREA NITROGEN [1]: 14.33 mg/dL
- CARBON DIOXIDE [1]: 25.33 mmol/L
- CHLORIDE [1]: 102 MEQ/L
- CHOLESTEROL [1]: 88 mg/dL
- CREATINE PHOSPHOKINASE [1]: 214.67 u/L
- CREATININE [1]: 0.15 mg/dL
- GLUCOSE [1]: 154.33 mg/dL
- LACTATE DEHYDROGENASE [1]: 252.33 u/L
- LIPASE [1]: 9 u/L
- PHOSPHORUS [1]: 13.47 mg/dL
- POTASSIUM [1]: 6.79 MEQ/L
- SODIUM [1]: 146.9 MEQ/L
- TOTAL BILIRUBIN [1]: 0.2 mg/dL
- TOTAL PROTEIN [1]: 6 G/DL
- URIC ACID [1]: 1.6 mg/dL
- ABSOLUTE BASOPHIL [2]: 0 CELLS/uL
- ABSOLUTE EOSINOPHIL [2]: 0 CELLS/uL
- ABSOLUTE LYMPHOCYTE [2]: 9506.33 CELLS/uL
- ABSOLUTE MONOCYTE [2]: 133 CELLS/uL
- ABSOLUTE SEGMENTED NEUTROPHIL [2]: 1294 CELLS/uL
- BASOPHIL [2]: 0%
- EOSINOPHIL [2]: 0%
- ERYTHROCYTE COUNT [2]: 5.45 x10E6/uL
- HEMATOCRIT [2]: 35.03%
- HEMOGLOBIN [2]: 13.53 G/DL
- LEUKOCYTE COUNT [2]: 10.93 x10E3/uL
- LYMPHOCYTE [2]: 87%
- MEAN CORPUSCULAR HEMOGLOBIN [2]: 24.9 pg
- MEAN CORPUSCULAR HEMOGLOBIN CONCENTRATION [2]: 38.67 G/DL
- MEAN CORPUSCULAR VOLUME [2]: 64.33 fL
- MONOCYTE [2]: 1.33%
- NEUTROPHIL [2]: 11.67%
- NUCLEATED RED BLOOD CELLS [2]: 2 /100WBC
- PLATELET COUNT [2]: 1237.33 x10E3/uL
- ALANINE AMINOTRANSFERASE [2]: 56 u/L
- ALBUMIN [2]: 4.23 G/DL
- ALKALINE PHOSPHATASE [2]: 398.67 u/L
- ASPARTATE AMINOTRANSFERASE [2]: 78 u/L
- BLOOD UREA NITROGEN [2]: 15 mg/dL
- CARBON DIOXIDE [2]: 27 mmol/L
- CHLORIDE [2]: 102.33 MEQ/L
- CHOLESTEROL [2]: 73.67 mg/dL
- CREATINE PHOSPHOKINASE [2]: 195.33 u/L
- CREATININE [2]: 0.19 mg/dL
- GLUCOSE [2]: 148.33 mg/dL
- LACTATE DEHYDROGENASE [2]: 106 u/L
- LIPASE [2]: 8.33 u/L
- PHOSPHORUS [2]: 12.73 mg/dL
- POTASSIUM [2]: 6.57 MEQ/L
- SODIUM [2]: 147 MEQ/L
- TOTAL BILIRUBIN [2]: 0.2 mg/dL
- TOTAL PROTEIN [2]: 6.1 G/DL
- URIC ACID [2]: 1.2 mg/dL
- ABSOLUTE BASOPHIL [3]: 0 CELLS/uL
- ABSOLUTE EOSINOPHIL [3]: 39 CELLS/uL
- ABSOLUTE LYMPHOCYTE [3]: 11981 CELLS/uL
- ABSOLUTE MONOCYTE [3]: 301 CELLS/uL
- ABSOLUTE SEGMENTED NEUTROPHIL [3]: 1579 CELLS/uL
- BASOPHIL [3]: 0%
- EOSINOPHIL [3]: 0.33%
- ERYTHROCYTE COUNT [3]: 5.38 x10E6/uL
- HEMATOCRIT [3]: 34.23%
- HEMOGLOBIN [3]: 13.3 G/DL
- LEUKOCYTE COUNT [3]: 13.9 x10E3/uL
- LYMPHOCYTE [3]: 85.67%
- MEAN CORPUSCULAR HEMOGLOBIN [3]: 24.7 pg
- MEAN CORPUSCULAR HEMOGLOBIN CONCENTRATION [3]: 38.83 G/DL
- MEAN CORPUSCULAR VOLUME [3]: 63.7 fL
- MONOCYTE [3]: 2.33%
- NEUTROPHIL [3]: 11.67%
- NUCLEATED RED BLOOD CELLS [3]: 1 /100WBC
- PLATELET COUNT [3]: 1269.67 x10E3/uL
- ALANINE AMINOTRANSFERASE [3]: 53.33 u/L
- ALBUMIN [3]: 3.63 G/DL
- ALKALINE PHOSPHATASE [3]: 412 u/L
- ASPARTATE AMINOTRANSFERASE [3]: 76.33 u/L
- BLOOD UREA NITROGEN [3]: 14.33 mg/dL
- CARBON DIOXIDE [3]: 26 mmol/L
- CHLORIDE [3]: 101.33 MEQ/L
- CHOLESTEROL [3]: 93 mg/dL
- CREATINE PHOSPHOKINASE [3]: 193.67 u/L
- CREATININE [3]: 0.18 mg/dL
- GLUCOSE [3]: 142.67 mg/dL
- LACTATE DEHYDROGENASE [3]: 154 u/L
- LIPASE [3]: 10.67 u/L
- PHOSPHORUS [3]: 12.17 mg/dL
- POTASSIUM [3]: 6.36 MEQ/L
- SODIUM [3]: 144.1 MEQ/L
- TOTAL BILIRUBIN [3]: 0.17 mg/dL
- TOTAL PROTEIN [3]: 5.57 G/DL
- URIC ACID [3]: 1.23 mg/dL
- ABSOLUTE BASOPHIL [4]: 0 CELLS/uL
- ABSOLUTE EOSINOPHIL [4]: 100.67 CELLS/uL
- ABSOLUTE LYMPHOCYTE [4]: 12538 CELLS/uL
- ABSOLUTE MONOCYTE [4]: 97.33 CELLS/uL
- ABSOLUTE SEGMENTED NEUTROPHIL [4]: 1764 CELLS/uL
- BASOPHIL [4]: 0%
- EOSINOPHIL [4]: 0.67%
- ERYTHROCYTE COUNT [4]: 4.84 x10E6/uL
- HEMATOCRIT [4]: 29.03%
- HEMOGLOBIN [4]: 11.63 G/DL
- LEUKOCYTE COUNT [4]: 14.5 x10E3/uL
- LYMPHOCYTE [4]: 86.67%
- MEAN CORPUSCULAR HEMOGLOBIN [4]: 24.07 pg
- MEAN CORPUSCULAR HEMOGLOBIN CONCENTRATION [4]: 40.13 G/DL
- MEAN CORPUSCULAR VOLUME [4]: 60.03 fL
- MONOCYTE [4]: 0.67%
- NEUTROPHIL [4]: 12%
- NUCLEATED RED BLOOD CELLS [4]: 0 /100WBC
- PLATELET COUNT [4]: 1313.67 x10E3/uL
- ALANINE AMINOTRANSFERASE [4]: 73.67 u/L
- ALBUMIN [4]: 3.63 G/DL
- ALKALINE PHOSPHATASE [4]: 318 u/L
- ASPARTATE AMINOTRANSFERASE [4]: 113.67 u/L
- BLOOD UREA NITROGEN [4]: 18 mg/dL
- CARBON DIOXIDE [4]: 29.33 mmol/L
- CHLORIDE [4]: 98.67 MEQ/L
- CHOLESTEROL [4]: 97.33 mg/dL
- CREATINE PHOSPHOKINASE [4]: 403.33 u/L
- CREATININE [4]: 0.19 mg/dL
- GLUCOSE [4]: 144 mg/dL
- LACTATE DEHYDROGENASE [4]: 612.33 u/L
- LIPASE [4]: 10.67 u/L
- PHOSPHORUS [4]: 13.33 mg/dL
- POTASSIUM [4]: 5 MEQ/L
- SODIUM [4]: 136.53 MEQ/L
- TOTAL BILIRUBIN [4]: 0.1 mg/dL
- TOTAL PROTEIN [4]: 5.57 G/DL
- URIC ACID [4]: 1.7 mg/dL
